Measured values published in PubChem BioAssay AID250 (DTP/NCI, 2004).
Where “and” joins values, the source holds several entries; their conditions need not be identical. Equal entries are not always repeated. Toxic doses and inconclusive results are not listed.

System: BDF1 mice, L1210 leukemia sc, survival T/C
Test: NCI In Vivo Anticancer Drug Screen. Data for tumor model L1210 Leukemia (subcutaneous) in B6D2F1 (BDF1) mice
Conditions: endpoint: median survival time, higher = longer survival
How it was run: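 Read-out: T/C ratio, i.e. survival or tumor size in treated mice over that in vehicle-treated controls, from mice bearing transplantable tumors.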

[1] = dose: 14.0 mg/kg/injection, schedule: Q01DX Z (sc), vehicle: methylcellulose (MC)
[2] = dose: 23.0 mg/kg/injection, schedule: Q01DX Z (sc), vehicle: methylcellulose (MC)
[3] = dose: 108.0 mg/kg/injection, schedule: Q01DX Z (sc), vehicle: methylcellulose (MC)
[4] = dose: 65.0 mg/kg/injection, schedule: Q01DX Z (sc), vehicle: methylcellulose (MC)
[5] = dose: 14.0 mg/kg/injection, schedule: Q01DX Z (sc), vehicle: saline
[6] = dose: 23.0 mg/kg/injection, schedule: Q01DX Z (sc), vehicle: saline
[7] = dose: 65.0 mg/kg/injection, schedule: Q01DX Z (sc), vehicle: saline
[8] = dose: 108.0 mg/kg/injection, schedule: Q01DX Z (sc), vehicle: saline
[9] = dose: 500.0 mg/kg/injection, schedule: Q01DX Z (sc), vehicle: methylcellulose (MC)
[10] = dose: 833.0 mg/kg/injection, schedule: Q01DX Z (sc), vehicle: methylcellulose (MC)

With OC(C1CO1)C(O)C1CO1 (stereo not drawn) the T/C (dose: 0.12 mg/kg/injection, schedule: Q01DX009 (ip), vehicle: saline) was 98 % of control, the T/C (dose: 0.25 mg/kg/injection, schedule: Q01DX009 (ip), vehicle: saline) was 107 % of control and the T/C (dose: 0.5 mg/kg/injection, schedule: Q01DX009 (ip), vehicle: saline) was 107 % of control. For the same compound, the T/C (dose: 1.0 mg/kg/injection, schedule: Q01DX009 (ip), vehicle: saline) was 122 % of control, the T/C (dose: 1.0 mg/kg/injection, schedule: Q01DX009 (ip), vehicle: water) was 116 % of control and the T/C (dose: 1.0 mg/kg/injection, schedule: Q01DX009 (sc), vehicle: water) was 122 % of control. For the same compound, the T/C (dose: 2.0 mg/kg/injection, schedule: Q01DX009 (ip), vehicle: saline) was 150 % of control, the T/C (dose: 2.0 mg/kg/injection, schedule: Q01DX009 (sc), vehicle: water) was 150 % of control and the T/C (dose: 2.0 mg/kg/injection, schedule: Q04DX003 (ip), vehicle: water) was 111 % of control. For the same compound, the T/C (dose: 4.0 mg/kg/injection, schedule: Q01DX009 (ip), vehicle: saline) was 118 % of control, the T/C (dose: 4.0 mg/kg/injection, schedule: Q04DX003 (ip), vehicle: water) was 155 % of control and the T/C (dose: 4.0 mg/kg/injection, schedule: Q04DX003 (sc), vehicle: water) was 161 % of control. The T/C (dose: 8.0 mg/kg/injection, schedule: Q04DX003 (ip), vehicle: water) was 88 % of control and the T/C (dose: 8.0 mg/kg/injection, schedule: Q04DX003 (sc), vehicle: water) was 116 % of control.

C1OC1CN1CCC(C2CCN(CC3CO3)CC2)CC1 (stereo not drawn) was tested, and the T/C (dose: 5.0 mg/kg/injection, schedule: Q01DX Z (sc), vehicle: methylcellulose (MC)) was 109 % of control, the T/C [1] was 109 % of control and the T/C [2] was 104 % of control. For the same compound, the T/C (dose: 65.0 mg/kg/injection, schedule: Q03DX Z (sc), vehicle: methylcellulose (MC)) was 109 % of control, the T/C [3] was 118 % of control and the T/C (dose: 180.0 mg/kg/injection, schedule: Q03DX Z (sc), vehicle: methylcellulose (MC)) was 118 % of control.

With CS(=O)(=O)OCCCl the T/C [1] was 90 % of control, the T/C [2] was 95 % of control and the T/C (dose: 39.0 mg/kg/injection, schedule: Q01DX Z (sc), vehicle: methylcellulose (MC)) was 90 % of control. The T/C [4] was 100 % of control.

In the case of S=P(N1CCCCCC1)(N1CC1)N1CC1, the T/C (dose: 4.7 mg/kg/injection, schedule: Q01DX Z (sc), vehicle: saline) is reported as 100 % of control, the T/C (dose: 7.8 mg/kg/injection, schedule: Q01DX Z (sc), vehicle: saline) is reported as 111 % of control and the T/C (dose: 8.4 mg/kg/injection, schedule: Q01DX Z (sc), vehicle: saline) is reported as 111 % of control. The T/C (dose: 13.0 mg/kg/injection, schedule: Q01DX Z (sc), vehicle: saline) was 100 % of control, the T/C [5] was 111 % of control and the T/C (dose: 21.6 mg/kg/injection, schedule: Q01DX Z (sc), vehicle: saline) was 111 % of control. The T/C [6] was 111 % of control, the T/C (dose: 36.0 mg/kg/injection, schedule: Q01DX Z (sc), vehicle: saline) was 116 % of control and the T/C (dose: 39.0 mg/kg/injection, schedule: Q01DX Z (sc), vehicle: saline) was 122 % of control. For the same compound, the T/C (dose: 60.0 mg/kg/injection, schedule: Q01DX Z (sc), vehicle: saline) was 166 % of control, the T/C [7] was 116 % of control and the T/C (dose: 100.0 mg/kg/injection, schedule: Q01DX Z (sc), vehicle: saline) was 161 % of control. The T/C [8] was 155 % of control.

CCCCSc1ncnc2nc[nH]c12 was tested, and the T/C [1] was 90 % of control, the T/C (dose: 23.3 mg/kg/injection, schedule: Q01DX Z (sc), vehicle: methylcellulose (MC)) was 100 % of control and the T/C (dose: 38.9 mg/kg/injection, schedule: Q01DX Z (sc), vehicle: methylcellulose (MC)) was 104 % of control. The T/C [9] was 113 % of control and the T/C [10] was 100 % of control.

With Nc1nncs1 the T/C (dose: 50.0 mg/kg/injection, schedule: Q04DX004 (sc), vehicle: water) was 111 % of control, the T/C (dose: 100.0 mg/kg/injection, schedule: Q04DX004 (sc), vehicle: water) was 101 % of control and the T/C (dose: 200.0 mg/kg/injection, schedule: Q04DX004 (sc), vehicle: water) was 106 % of control. The T/C (dose: 200.0 mg/kg/injection, schedule: Q08DX003 (sc), vehicle: water) was 101 % of control, the T/C (dose: 400.0 mg/kg/injection, schedule: Q04DX004 (sc), vehicle: water) was 111 % of control and the T/C (dose: 400.0 mg/kg/injection, schedule: Q08DX003 (sc), vehicle: water) was 108 % of control. For the same compound, the T/C (dose: 800.0 mg/kg/injection, schedule: Q08DX003 (sc), vehicle: water) was 109 % of control and the T/C (dose: 1600.0 mg/kg/injection, schedule: Q08DX003 (sc), vehicle: water) was 117 % of control.

For CCSc1nc(Cl)cc(Sc2nc(N)nc3nc[nH]c23)n1, the T/C (dose: 97.5 mg/kg/injection, schedule: Q01DX Z (sc), vehicle: methylcellulose (MC)) was 100 % of control, the T/C (dose: 156.0 mg/kg/injection, schedule: Q01DX Z (sc), vehicle: methylcellulose (MC)) was 100 % of control and the T/C (dose: 250.0 mg/kg/injection, schedule: Q01DX Z (sc), vehicle: methylcellulose (MC)) was 100 % of control. For the same compound, the T/C (dose: 400.0 mg/kg/injection, schedule: Q01DX Z (sc), vehicle: methylcellulose (MC)) was 100 % of control and the T/C (dose: 640.0 mg/kg/injection, schedule: Q01DX Z (sc), vehicle: methylcellulose (MC)) was 95 % of control.

Cc1c(CNc2ccc(C(=O)NC(CC(=O)O)C(=O)O)cc2)ccc2nc(N)nc(N)c12 (stereo not drawn) was tested, and the T/C (dose: 0.05 mg/kg/injection, schedule: Q01DX017 (sc), vehicle: sodium bicarbonate) was 116 % of control, the T/C (dose: 1.8 mg/kg/injection, schedule: Q04DX005 (sc), vehicle: sodium bicarbonate) was 229 % of control and the T/C (dose: 3.0 mg/kg/injection, schedule: Q04DX005 (sc), vehicle: sodium bicarbonate) was 233 % of control. The T/C (dose: 5.0 mg/kg/injection, schedule: Q04DX005 (sc), vehicle: sodium bicarbonate) was 170 % of control, the T/C (dose: 8.4 mg/kg/injection, schedule: Q04DX005 (sc), vehicle: sodium bicarbonate) was 150 % of control and the T/C (dose: 14.0 mg/kg/injection, schedule: Q01DX017 (sc), vehicle: sodium bicarbonate) was 95 % of control. For the same compound, the T/C (dose: 14.0 mg/kg/injection, schedule: Q04DX005 (sc), vehicle: sodium bicarbonate) was 116 % of control and the T/C (dose: 23.0 mg/kg/injection, schedule: Q01DX017 (sc), vehicle: sodium bicarbonate) was 87 % of control.

In the case of O=c1nc2[nH]c(=O)[nH]c(=O)c2n[nH]1, the T/C (dose: 10.0 mg/kg/injection, schedule: Q01DX Z (sc), vehicle: saline) is reported as 100 % of control, the T/C (dose: 28.0 mg/kg/injection, schedule: Q01DX Z (sc), vehicle: saline) is reported as 100 % of control and the T/C (dose: 47.0 mg/kg/injection, schedule: Q01DX Z (sc), vehicle: saline) is reported as 100 % of control. The T/C (dose: 78.0 mg/kg/injection, schedule: Q01DX Z (sc), vehicle: saline) was 100 % of control.

For CN(N=O)C(N)=O, the T/C (dose: 0.75 mg/kg/injection, schedule: Q01DX009 (ip), vehicle: saline) was 100 % of control, the T/C (dose: 1.5 mg/kg/injection, schedule: Q01DX009 (ip), vehicle: saline) was 100 % of control and the T/C (dose: 3.0 mg/kg/injection, schedule: Q01DX009 (ip), vehicle: saline) was 105 % of control. The T/C (dose: 6.0 mg/kg/injection, schedule: Q01DX009 (ip), vehicle: saline) was 120 % of control, the T/C [5] was 111 % of control and the T/C [6] was 100 % of control and 111 % of control. The T/C (dose: 31.1 mg/kg/injection, schedule: Q01DX Z (sc), vehicle: saline) was 122 % of control, the T/C [7] was 155 % of control and the T/C (dose: 86.4 mg/kg/injection, schedule: Q01DX Z (sc), vehicle: saline) was 118 % of control. For the same compound, the T/C [8] was 118 % of control and 120 % of control, the T/C (dose: 144.0 mg/kg/injection, schedule: Q01DX Z (sc), vehicle: saline) was 109 % of control and the T/C (dose: 180.0 mg/kg/injection, schedule: Q01DX Z (sc), vehicle: saline) was 100 % of control and 120 % of control.

For O=C(NC(CO)C(=O)O)C(Cl)Cl (stereo not drawn), the T/C (dose: 138.8 mg/kg/injection, schedule: Q01DX Z (sc), vehicle: water) was 100 % of control, the T/C (dose: 300.0 mg/kg/injection, schedule: Q01DX Z (sc), vehicle: water) was 100 % of control and the T/C (dose: 500.0 mg/kg/injection, schedule: Q01DX Z (sc), vehicle: water) was 100 % of control.

In the case of Cn1c(N)nc2nc[nH]c2c1=S, the T/C [4] is reported as 100 % of control, the T/C [3] is reported as 100 % of control and the T/C (dose: 180.0 mg/kg/injection, schedule: Q01DX Z (sc), vehicle: methylcellulose (MC)) is reported as 100 % of control and 105 % of control. The T/C (dose: 300.0 mg/kg/injection, schedule: Q01DX Z (sc), vehicle: methylcellulose (MC)) was 100 % of control, the T/C [9] was 100 % of control and 105 % of control and the T/C [10] was 110 % of control.
